Experimental findings from patent US12378224B2 (Dong-A Socio Holdings Co., Ltd., priority 2016, dated 2025) are described below.

In experiment [1] the target is BCR fusion to kinase domain of MerTK (Ba/F3-MerTK) (Homo sapiens, UniProt Q12866). The experiment can be described thus: In Cell TAM Kinase Assay Using BaF3 Cellular System. As to conditions: Ba/F3 BCR-kinase fusion proliferation, 72 hours, Cell Titer Glo; kinase not given; read-out: IC50. The class given is cell-based, murine. The text has this: Three Ba/F3 cell lines (a murine IL-3 dependent pro-B cell line) expressing BCR fusions to the kinase domains of either MerTK (Ba/F3-MerTK), Axl (Ba/F3-Axl), or Tyro3 (Ba/F3-Tyro3) were purchased from Advanced Cellular Dynamics. The IL-3 independence of all 3 cell lines was confirmed. After thawing, the 3 Ba/F3 cell lines were split and maintained in cell culture media, which consisted of RPMI-1640-HEPES (Thermo-Cat #22400-089) with 1× Glutamax (Thermo-Cat #35050-061) and 10% FBS (Sigma-Cat #F4135 (500 ml), at a cell density range of 0.05×10^6−1×10^6 cells/mL 4 days before used in the routine screen. Compound plates were prepared using Nunc™ white 384-well optical bottom plates (ThermoFisher, USA) with compound in 25 nL dimethyl sulfoxide in each well. For routine assays, each of the 3 Ba/F3 cell lines was seeded at 1,000 cells per well with 25 µL of cell culture media directly into 384-well compound plates and incubated for 72 hours. Cell proliferation was then measured by adding 25 μL of Cell Titer Glo 2.0 (Promega, USA). After incubating with Cell Titer Glo at room temperature for 30 mins, the luminescence intensity, which quantifies the cell viability, was measured using an Envision™ plate reader (PerkinElmer, USA). […] In the presence of IL-3, the proliferation of the Ba/F3-Tyro3 cells is no longer dependent on the Tyro3 kinase activity.
BCR fusion to kinase domain of MerTK (Ba/F3-MerTK), sequence (Q12866 21-999 limits assumed, stated change not applied): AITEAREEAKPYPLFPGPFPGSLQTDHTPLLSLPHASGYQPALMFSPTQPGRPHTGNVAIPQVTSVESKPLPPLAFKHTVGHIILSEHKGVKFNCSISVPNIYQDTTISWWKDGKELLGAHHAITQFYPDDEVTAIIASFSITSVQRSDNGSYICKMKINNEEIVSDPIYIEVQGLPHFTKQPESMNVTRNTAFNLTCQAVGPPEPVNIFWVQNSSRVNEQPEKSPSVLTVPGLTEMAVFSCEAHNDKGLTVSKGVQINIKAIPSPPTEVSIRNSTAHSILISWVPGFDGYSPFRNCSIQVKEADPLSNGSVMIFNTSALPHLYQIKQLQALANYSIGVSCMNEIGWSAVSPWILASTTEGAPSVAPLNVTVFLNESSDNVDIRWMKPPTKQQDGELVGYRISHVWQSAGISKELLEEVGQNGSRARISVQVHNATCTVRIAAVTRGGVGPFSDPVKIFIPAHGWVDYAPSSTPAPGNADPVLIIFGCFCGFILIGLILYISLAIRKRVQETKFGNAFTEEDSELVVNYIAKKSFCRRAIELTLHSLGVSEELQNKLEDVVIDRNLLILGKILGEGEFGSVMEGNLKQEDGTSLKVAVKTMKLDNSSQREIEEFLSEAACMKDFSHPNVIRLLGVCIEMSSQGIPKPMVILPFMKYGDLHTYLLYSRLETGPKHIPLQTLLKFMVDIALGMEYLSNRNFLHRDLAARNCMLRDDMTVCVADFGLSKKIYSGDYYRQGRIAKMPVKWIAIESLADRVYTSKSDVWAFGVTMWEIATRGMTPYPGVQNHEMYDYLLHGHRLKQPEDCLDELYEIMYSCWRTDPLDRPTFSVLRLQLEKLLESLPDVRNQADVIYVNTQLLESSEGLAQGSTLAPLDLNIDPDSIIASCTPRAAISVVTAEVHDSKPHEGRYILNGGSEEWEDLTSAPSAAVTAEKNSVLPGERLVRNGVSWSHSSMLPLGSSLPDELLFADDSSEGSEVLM

The next experiment concerns the target human MER (528-end) (Homo sapiens (Human), UniProt Q12866). The experiment can be described thus: HTRF Kinase Activity Biochemical Assay (KinEASE-TK). As to conditions: 10 uM ATP. A digest of the protocol:
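Recombinant human MER (528-end) phosphorylated biotin-TK peptide substrate, 1 h at room temperature. Reaction stopped with detection buffer containing 0.375 nM Eu3+-cryptate anti-TK antibody and 0.062 uM streptavidin-XL665, 1 h further. Activity taken as HTRF ratio 665/620 nm ×10,000, 340 nm excitation.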

Experiment [2] concerns the target human c-MER catalytic domain (Homo sapiens (Human), UniProt Q12866). As to the kind of experiment: TR-FRET Kinase Activity Biochemical Assay (LanthaScreen). As to conditions: 10 uM ATP, 1 hour, kinase not given. A digest of the protocol:
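Recombinant human c-MER catalytic domain phosphorylated fluorescein-labeled poly-GT substrate. The reaction was stopped with 10 mM EDTA, then 2 nM Tb-labeled anti-phosphotyrosine antibody was added for 30 min. Kinase activity was taken from the 495/520 nm TR-FRET emission ratio after 340 nm excitation.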

SMILES strings stand for the structures.

human c-MER catalytic domain, sequence (Q12866 587-858): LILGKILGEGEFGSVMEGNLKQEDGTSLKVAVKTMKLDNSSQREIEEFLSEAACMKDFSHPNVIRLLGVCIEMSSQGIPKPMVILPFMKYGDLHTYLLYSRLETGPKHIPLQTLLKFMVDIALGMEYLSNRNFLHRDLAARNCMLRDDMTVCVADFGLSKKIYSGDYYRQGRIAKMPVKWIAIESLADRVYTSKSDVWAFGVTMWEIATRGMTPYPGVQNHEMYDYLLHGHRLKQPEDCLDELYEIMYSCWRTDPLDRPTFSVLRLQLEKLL
human MER (528-end), sequence (Q12866 528-999 limits assumed): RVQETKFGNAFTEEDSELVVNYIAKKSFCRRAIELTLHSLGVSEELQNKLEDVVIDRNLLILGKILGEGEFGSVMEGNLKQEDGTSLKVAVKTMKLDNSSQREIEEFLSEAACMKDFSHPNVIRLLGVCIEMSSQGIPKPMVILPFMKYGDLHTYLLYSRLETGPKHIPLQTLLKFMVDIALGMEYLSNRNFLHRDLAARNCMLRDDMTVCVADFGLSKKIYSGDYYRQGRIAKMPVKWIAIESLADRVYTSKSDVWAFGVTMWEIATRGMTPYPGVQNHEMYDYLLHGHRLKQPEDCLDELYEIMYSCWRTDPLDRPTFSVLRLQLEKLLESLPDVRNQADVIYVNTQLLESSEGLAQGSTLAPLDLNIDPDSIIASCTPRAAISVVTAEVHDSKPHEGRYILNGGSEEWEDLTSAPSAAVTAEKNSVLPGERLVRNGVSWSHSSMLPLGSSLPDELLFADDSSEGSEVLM

Turning to `Nc1ncc(-c2ccccc2O)cc1C(=O)N[C@@H]1CCN(C(=O)c2ccc(-c3ccc(F)cc3Cl)cc2)C1` [Example 778, (R)-2-amino-N-(1-(2′-chloro-4′-fluoro-[1,1′-biphenyl]-4-carbonyl)pyrrolidin-3-yl)-5-(2-hydroxyphenyl)nicotinamide], the IC50 was more than 1000 nM in experiment [1] and 100 to 1000 nM on human MER (528-end). As to `Cn1cc(-c2cnc(N)c(C(=O)N[C@@H]3CCN(C(=O)c4ccc(-c5ccc(Oc6ccc(O)cc6)c(Cl)c5)cc4)C3)c2)cn1` [Example 808, (R)-2-amino-N-(1-(3′-chloro-4′-(4-hydroxyphenoxy)-[1,1′-biphenyl]-4-carbonyl)pyrrolidin-3-yl)-5-(1-methyl-1H-pyrazol-4-yl)nicotinamide], the IC50 in experiment [1] lay in the range of 100 to 500 nM; against human MER (528-end), 10 to 100 nM. For `Cn1cc(-c2cnc(N)c(C(=O)N[C@@H]3CCN(C(=O)c4ccc(Oc5ccccc5Cl)cc4)C3)c2)cn1` [Example 718, (R)-2-amino-N-(1-(4-(2-chlorophenoxy)benzoyl)pyrrolidin-3-yl)-5-(1-methyl-1H-pyrazol-4-yl)nicotinamide], in that order: 500 to 1000 nM and 10 to 100 nM.

Regarding `CN(c1ccc2cc(C(=O)N3CC[C@@H](NC(=O)c4cc(-c5cnn(C)c5)cnc4N)C3)ccc2c1)C1CCN(CCO)CC1` [Example 820, (R)-2-amino-N-(1-(6-((1-(2-hydroxyethyl)piperidin-4-yl)(methyl)amino)-2-naphthoyl)pyrrolidin-3-yl)-5-(1-methyl-1H-pyrazol-4-yl)nicotinamide], the values for the IC50 (in experiment [1]; at human MER (528-end)) were 100 to 500 nM and 10 to 100 nM, respectively.

Take `Cn1cc(-c2cnc(N)c(C(=O)N[C@@H]3CCN(C(=O)c4c[nH]c5ccccc45)C3)c2)cn1` [Example 710, (R)—N-(1-(1H-indole-3-carbonyl)pyrrolidin-3-yl)-2-amino-5-(1-methyl-1H-pyrazol-4-yl)nicotinamide]: the 50% inhibitory concentration (IC50) (in experiment [1]; on human MER (528-end)) was more than 1000 nM in each case. In the case of `COc1ccc(-c2ccc(C(=O)N3CC[C@@H](NC(=O)c4cc(-c5cnn(C)c5)cnc4N)C3)cc2)cc1OC` [Example 659, (R)-2-amino-N-(1-(3′,4′-dimethoxy-[1,1′-biphenyl]-4-carbonyl)pyrrolidin-3-yl)-5-(1-methyl-1H-pyrazol-4-yl)nicotinamide], the concentration for half-maximal inhibition (IC50) in experiment [1] is more than 1000 nM; against human MER (528-end), 100 to 1000 nM. As for `Cn1cc(-c2cnc(N)c(C(=O)N[C@@H]3CCN(C(=O)c4ccc(-c5ccc6ccccc6c5)cc4)C3)c2)cn1` [Example 750, (R)-2-amino-5-(1-methyl-1H-pyrazol-4-yl)-N-(1-(4-(naphthalen-2-yl)benzoyl)pyrrolidin-3-yl)nicotinamide], the figures for the IC50 (in experiment [1]; at human MER (528-end)) were more than 1000 nM and 10 to 100 nM, respectively. For `Cc1cc(N)ccc1N(C)c1ccc(-c2ccc(C(=O)N3CC[C@@H](NC(=O)c4cc(-c5cnn(C)c5)cnc4N)C3)cc2)cc1` [Example 836, (R)-2-amino-N-(1-(4′-((4-amino-2-methylphenyl)(methyl)amino)-[1,1′-biphenyl]-4-carbonyl)pyrrolidin-3-yl)-5-(1-methyl-1H-pyrazol-4-yl)nicotinamide], in that order: more than 1000 nM and 100 to 1000 nM. Take `Cn1cc(-c2cnc(N)c(C(=O)N[C@@H]3CCN(C(=O)c4ccc(-c5ccc(F)cc5Cl)cc4)C3)c2)cn1` [Example 366, (R)-2-amino-N-(1-(2′-chloro-4′-fluoro-[1,1′-biphenyl]-4-carbonyl)pyrrolidin-3-yl)-5-(1-methyl-1H-pyrazol-4-yl)nicotinamide]: the values for the IC50 (in experiment [1]; against human MER (528-end)) were 100 to 500 nM and 10 to 100 nM, respectively. For the molecule `Cn1cc(-c2cnc(N)c(C(=O)N[C@@H]3CCN(C(=O)c4ccc(Oc5ccc([N+](=O)[O-])cc5)cc4)C3)c2)cn1` [Example 831, (R)-2-amino-5-(1-methyl-1H-pyrazol-4-yl)-N-(1-(4-(4-nitrophenoxy)benzoyl)pyrrolidin-3-yl)nicotinamide], the figures for the half-inhibitory concentration (IC50) (in experiment [1]; against human MER (528-end)) were more than 1000 nM and 100 to 1000 nM, respectively. For `Cn1cc(-c2cnc(N)c(C(=O)N[C@@H]3CCN(C(=O)c4ccc(-c5ccc(Oc6ccc(C(N)=O)cc6)cc5)cc4)C3)c2)cn1` [Example 788, (R)-2-amino-N-(1-(4′-(4-carbamoylphenoxy)-[1,1′-biphenyl]-4-carbonyl)pyrrolidin-3-yl)-5-(1-methyl-1H-pyrazol-4-yl)nicotinamide], in that order: more than 1000 nM and 10 to 100 nM. For `Cn1cc(-c2cnc(N)c(C(=O)N[C@@H]3CCN(C(=O)c4ccc(-c5ccccc5F)cc4)C3)c2)cn1` [Example 370, (R)-2-amino-N-(1-(2′-fluoro-[1,1′-biphenyl]-4-carbonyl)pyrrolidin-3-yl)-5-(1-methyl-1H-pyrazol-4-yl)nicotinamide], in that order: more than 1000 nM and 10 to 100 nM.

On to `Nc1ncc(-c2ccc(C(=O)N3CCOCC3)cc2)cc1C(=O)N[C@@H]1CCN(C(=O)c2ccc(-c3ccccc3Cl)cc2)C1` [Example 590, (R)-2-amino-N-(1-(2′-chloro-[1,1′-biphenyl]-4-carbonyl)pyrrolidin-3-yl)-5-(4-(morpholine-4-carbonyl)phenyl)nicotinamide], for which the IC50 is more than 1000 nM in experiment [1] and 10 to 100 nM at human MER (528-end). For `CC(C)(c1ccc(-c2cnc(N)c(C(=O)N[C@@H]3CCN(C(=O)c4ccc(-c5ccccc5)cc4)C3)c2)cc1)N1CCN(CCO)CC1` [Example 565, (R)—N -(1-([1,1′-biphenyl]-4-carbonyl)pyrrolidin-3-yl)-2-amino-5-(4-(2-(4-(2-hydroxyethyl)piperazin-1-yl)propan-2-yl)phenyl)nicotinamide], in that order: more than 1000 nM and 10 to 100 nM. As for `Cn1cc(-c2cnc(N)c(C(=O)N[C@@H]3CCN(C(=O)c4ccc(-c5ccc(Oc6ccc(C(=O)O)cc6)cc5)cc4)C3)c2)cn1` [Example 812, (R)-4-((4′-(3-(2-amino-5-(1-methyl-1H-pyrazol-4-yl)nicotinamido)pyrrolidine-1-carbonyl)-[1,1′-biphenyl]-4-yl)oxy)benzoic acid], the values for the 50% inhibitory concentration (IC50) (in experiment [1]; against human MER (528-end)) were more than 1000 nM and 10 to 100 nM, respectively. Take `Cn1cc(-c2cnc(N)c(C(=O)N[C@@H]3CCN(C(=O)c4ccc5cc(OCC6CCNCC6)ccc5c4)C3)c2)cn1` [Example 761]: in experiment [1], the IC50 is more than 1000 nM. `Cc1n[nH]c(C)c1-c1ccc(C(=O)N2CC[C@@H](NC(=O)c3cc(-c4cnn(C)c4)cnc3N)C2)cc1` [Example 518, (R)-2-amino-N-(1-(4-(3,5-dimethyl-1H-pyrazol-4-yl)benzoyl)pyrrolidin-3-yl)-5-(1-methyl-1H-pyrazol-4-yl)nicotinamide] came in with a half-maximal inhibitory concentration (IC50) in experiment [2] of 100 to 1000 nM. For `Cn1cc(-c2cnc(N)c(C(=O)N[C@@H]3CCN(C(=O)c4ccc(-c5ccoc5)cc4)C3)c2)cn1` [Example 487, (R)-2-amino-N-(1-(4-(furan-3-yl)benzoyl)pyrrolidin-3-yl)-5-(1-methyl-1H-pyrazol-4-yl)nicotinamide], the IC50 in experiment [2] lay in the range of 100 to 1000 nM. `Cn1cc(-c2cnc(N)c(C(=O)N[C@@H]3CCN(C(=O)c4ccc(-c5ccccc5)nc4)C3)c2)cn1` [Example 398, (R)-2-amino-5-(1-methyl-1H-pyrazol-4-yl)-N-(1-(6-phenylnicotinoyl)pyrrolidin-3-yl)nicotinamide] yielded an IC50 in experiment [2] of 100 to 1000 nM. On the same count and under the same terms, with `Cn1cc(-c2cnc(N)c(C(=O)N[C@@H]3CCN(C(=O)c4ccc(-c5ccc(Oc6ccc(N)cc6)cc5F)cc4)C3)c2)cn1` [Example 533, (R)-2-amino-N-(1-(4′-(4-aminophenoxy)-2′-fluoro-[1,1′-biphenyl]-4-carbonyl)pyrrolidin-3-yl)-5-(1-methyl-1H-pyrazol-4-yl)nicotinamide] the figure was 10 to 100 nM; with `CN(C)CCCOc1ccc2cc(OC(=O)N3CC[C@@H](NC(=O)c4cc(-c5cnn(C)c5)cnc4N)C3)ccc2c1` [Example 301, 6-(3-(dimethylamino)propoxy)naphthalen-2-yl (R)-3-(2-amino-5-(1-methyl-1H-pyrazol-4-yl)nicotinamido)pyrrolidine-1-carboxylate], 100 to 1000 nM; with `Cn1cc(-c2cnc(N)c(C(=O)NC3CN(C(=O)c4cccc(-c5ccccc5)c4)C3)c2)cn1` [Example 670, N-(1-([1,1′-biphenyl]-3-carbonyl)azetidin-3-yl)-2-amino-5-(1-methyl-1H-pyrazol-4-yl)nicotinamide], more than 1000 nM.

Consider `CN1CCN(Cc2ccc(-c3cccc(CCN4CC[C@@H](NC(=O)c5cc(-c6cnn(C)c6)cnc5N)C4)c3)cc2)CC1` [Example 253, (R)-2-amino-5-(1-methyl-1H-pyrazol-4-yl)-N-(1-(2-(4′-((4-methylpiperazin-1-yl)methyl)-[1,1′-biphenyl]-3-yl)ethyl)pyrrolidin-3-yl)nicotinamide], for which the IC50 in experiment [2] was more than 1000 nM.
